According to patent US11919855B2, “Substituted pyrrolidones and piperidones as small molecule inhibitors of EZH2 and EED protein binding” (Northwestern University, priority 2021, dated 2024):

Target: EED-EZH2 (Homo sapiens (Human), UniProt O75530)
Experiment: EED-EZH2 AlphaScreen assay
Assay type: binding
Details: 8.7 nM EZH2, 5.0 nM EED, read-out: IC50 Potency Code
Procedure: Biological activity of exemplary substituted pyrrolidones and piperidones was determined by the EED-EZH2 AlphaScreen assay according the following methodology.
EZH2 (non-complexed), His-GST-tags
Anti-FLAG AlphaLISA Acceptor Beads
AlphaScreen GSH Donor Beads
Assay Protocol (Calculated for 384 Wells or 1 Plate)
• 1. Thaw EED and EZH2 proteins on ice. • 2. Prepare 1× HMT Buffer 2: • 1.5 mL of 4× HMT Buffer 2+4.5 mL ddH2O. • 3. Prepare 1.2× EED-EZH2 solution in 1× HMT Buffer 2: 3.4 mL total • 2.1 uL of EED (0.41 mg/mL, 8.04 uM, 1:1608 dilution)+14 uL of EZH2 (0.24 mg/mL, 2.11 uM, 1:243 dilution)+3.384 mL of 1× HMT Buffer 2 • 4. Prepare 1.2× EZH2 solution in 1× HMT Buffer 2 (positive control): 0.168 mL total • 0.69 uL of EZH2 (0.24 mg/mL, 2.11 uM, 1:243 dilution)+167 uL of 1× HMT Buffer 2 • 5. Add 10 μL of 1.2× EED-EZH2 or 1.2× EZH2 solution to each well. • 6. Add compounds in DMSO via Echo transfer and 30 nL DMSO for control wells. • 7. Centrifuge at 15,000 rpm for 10 seconds and allow to incubate at rt for 1 hour. Step Two • 1. Prepare 6× Anti-FLAG and GSH Donor beads in 1× HMT Buffer 2 in the dark: 1 mL total • 10 uL of Anti-FLAG (1:100 dilution)+5 uL of GSH Donor (1:200 dilution)+985 uL of 1× HMT Buffer 2 • 2. Add 2 μL of bead solution to each well. • 3. Centrifuge at 15,000 rpm for 10 seconds and allow to incubate at rt for 1 hour in the dark. • 4. Read plate. Final Concentrations: • 12 μL volume per well • 8.7 nM EZH2 • 5.0 nM EED • DMSO<0.5% Calculations: • 1. Average EZH2 only wells (positive control) and subtract from all other wells. • 2. Average EED-EZH2 only wells (negative control) to indicate 100% signal or 0% inhibition. • 3. Normalize each well to the average 100% signal from step 2. • 4. Report either as normalized % inhibition or normalized % signal. • Use GraphPad to Calculate IC50.

Chain of EED-EZH2 (O75530 2-441): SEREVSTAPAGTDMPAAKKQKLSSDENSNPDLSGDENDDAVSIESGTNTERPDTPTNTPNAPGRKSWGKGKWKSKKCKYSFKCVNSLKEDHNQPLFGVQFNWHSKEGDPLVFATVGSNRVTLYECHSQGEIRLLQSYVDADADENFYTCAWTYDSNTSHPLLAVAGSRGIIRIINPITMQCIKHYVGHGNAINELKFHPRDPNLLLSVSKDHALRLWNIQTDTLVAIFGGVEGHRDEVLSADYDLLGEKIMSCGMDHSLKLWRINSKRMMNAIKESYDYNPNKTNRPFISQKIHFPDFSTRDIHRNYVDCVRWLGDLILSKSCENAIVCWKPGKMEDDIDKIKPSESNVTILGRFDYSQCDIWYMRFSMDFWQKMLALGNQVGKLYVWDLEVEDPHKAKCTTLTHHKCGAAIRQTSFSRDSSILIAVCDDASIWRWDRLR

Compound	IC50 [µM]
O=C(NC1CC(=O)N(Cc2ccccc2C(F)(F)F)C1)c1cnon1 (centres unmarked) [NUCC-0202755]	> 50
O=C(Cc1cc2ccccc2[nH]1)NC1CC(=O)N(Cc2ccccc2C(F)(F)F)C1 (centres unmarked) [NUCC-0202756]	> 50
O=C(NC1CC(=O)N(Cc2ccccc2C(F)(F)F)C1)c1ccnc(Cl)n1 (centres unmarked) [NUCC-0202757]	> 50
O=C(NC1CC(=O)N(Cc2ccccc2C(F)(F)F)C1)c1ccc2ccccc2n1 (centres unmarked) [NUCC-0202758]	> 50
O=C(NC1CC(=O)N(Cc2ccccc2C(F)(F)F)C1)c1cscn1 (centres unmarked) [NUCC-0202759]	> 50
O=C(NC1CC(=O)N(Cc2ccccc2C(F)(F)F)C1)c1coc2ccccc12 (centres unmarked) [NUCC-0202760]	> 50
O=C(NC1CC(=O)N(Cc2ccccc2C(F)(F)F)C1)c1ccc2ccccc2c1O (centres unmarked) [NUCC-0202761]	10 to 50
O=C(NC1CC(=O)N(Cc2ccccc2C(F)(F)F)C1)c1ccc(Cl)nc1Cl (centres unmarked) [NUCC-0202762]	> 50
O=C(NC1CC(=O)N(Cc2ccccc2C(F)(F)F)C1)c1ccccc1F (centres unmarked) [NUCC-0202763]	> 50
Cn1nccc1C(=O)NC1CC(=O)N(Cc2ccccc2C(F)(F)F)C1 (centres unmarked) [NUCC-0202764]	> 50
O=C(NC1CC(=O)N(Cc2ccccc2C(F)(F)F)C1)c1ccc(Br)c(O)c1 (centres unmarked) [NUCC-0202765]	> 50
O=C1CC(Nc2n[nH]c3ccccc23)CN1Cc1ccccc1C(F)(F)F (centres unmarked) [NUCC-0202766]	> 50
O=C(NC1CC(=O)N(Cc2ccccc2C(F)(F)F)C1)c1cc(Cl)nc2ccccc12 (centres unmarked) [NUCC-0202792]	> 50
Cc1ccc(N)c(C(=O)NC2CC(=O)N(Cc3ccccc3C(F)(F)F)C2)c1 (centres unmarked) [NUCC-0202793]	> 50
Cc1ccc(O)c(C(=O)NC2CC(=O)N(Cc3ccccc3C(F)(F)F)C2)c1 (centres unmarked) [NUCC-0202826]	> 50
Cc1cccc(O)c1C(=O)NC1CC(=O)N(Cc2ccccc2C(F)(F)F)C1 (centres unmarked) [NUCC-0202827]	> 50
Cc1c[nH]c(=O)c(C(=O)NC2CC(=O)N(Cc3ccccc3C(F)(F)F)C2)c1 (centres unmarked) [NUCC-0202828]	> 50
O=C(NC1CC(=O)N(Cc2ccccc2C(F)(F)F)C1)c1cc2ccccc2cc1O (centres unmarked) [NUCC-0202830]	10 to 50
COc1ccc(O)c(C(=O)NC2CC(=O)N(Cc3ccccc3C(F)(F)F)C2)c1 (centres unmarked) [NUCC-0202831]	10 to 50
O=C(NC1CC(=O)N(Cc2ccccc2C(F)(F)F)C1)c1cc(F)ccc1O (centres unmarked) [NUCC-0202832]	1 to 10
O=C(NC1CC(=O)N(Cc2ccccc2C(F)(F)F)C1)c1cc(Cl)ccc1O (centres unmarked) [NUCC-0202833]	1 to 10
O=C(NC1CC(=O)N(Cc2ccccc2C(F)(F)F)C1)c1cc(Br)ccc1O (centres unmarked) [NUCC-0202834]	1 to 10
Cc1ccc(O)c(S(=O)(=O)NC2CC(=O)N(Cc3ccccc3C(F)(F)F)C2)c1 (centres unmarked) [NUCC-0202835]	> 50

Compound	IC50 [µM]
CC(C)(CO)C(=O)NC1CC(=O)N(Cc2ccccc2C(F)(F)F)C1 (centres unmarked) [NUCC-0202851]	> 50
O=C(NC1CC(=O)N(Cc2ccccc2C(F)(F)F)C1)c1cc(I)ccc1O (centres unmarked) [NUCC-0202852]	10 to 50
O=C(NC1CC(=O)N(Cc2ccccc2C(F)(F)F)C1)c1cc(C(F)(F)F)ccc1O (centres unmarked) [NUCC-0202965]	1 to 10
Cc1ccc(O)c(C(=O)NC2CC(=O)N(Cc3ccccc3C(=O)O)C2)c1 (centres unmarked) [NUCC-0202966]	1 to 10
COC(=O)c1ccccc1CN1CC(NC(=O)c2cc(C)ccc2O)CC1=O (centres unmarked) [NUCC-0202967]	1 to 10
Cc1ccc(O)c(C(=O)NC2CC(=O)N(Cc3ccccc3C(F)(F)F)C2)n1 (centres unmarked) [NUCC-0202968]	> 50
Cc1ccc(O)c(C(=O)Nc2ccc(=O)n(Cc3ccccc3C(F)(F)F)c2)c1 [NUCC-0202969]	> 50
CC(=O)N1CCCC(CN2CC(NC(=O)c3cc(C)ccc3O)CC2=O)C1 (centres unmarked) [NUCC-0202970]	10 to 50
Cc1ccc(O)c(C(=O)NC2CCC(=O)N(Cc3ccccc3C(F)(F)F)C2)c1 (centres unmarked) [NUCC-0202971]	1 to 10
COc1ccc(CN2C[C@@H](NC(=O)c3cc(C)ccc3O)CC2=O)c(OC)c1 [NUCC-0202972]	10 to 50
Cc1ccc(O)c(C(=O)N[C@H]2CC(=O)N(Cc3ccccc3Cl)C2)c1 [NUCC-0202973]	10 to 50
Cc1ccc(O)c(C(=O)N[C@H]2CC(=O)N(Cc3ccc(C(F)(F)F)cc3)C2)c1 [NUCC-0202974]	> 50
Cc1ccc(O)c(C(=O)N[C@H]2CC(=O)N(Cc3ccc(Cl)c(Cl)c3)C2)c1 [NUCC-0202975]	10 to 50
Cc1ccc(O)c(C(=O)N[C@H]2CC(=O)N(C3CCc4ccccc43)C2)c1 (some centres unmarked) [NUCC-0202976]	> 50
Cc1ccc(O)c(C(=O)N[C@@H]2CC(=O)N(Cc3ccc(Cl)c(Cl)c3)C2)c1 [NUCC-0202977]	10 to 50
Cc1ccc(O)c(C(=O)N[C@@H]2CC(=O)N(Cc3ccc(C(F)(F)F)cc3)C2)c1 [NUCC-0202978]	> 50
Cc1ccc(O)c(C(=O)N[C@H]2CC(=O)N(C3C=Cc4ccccc43)C2)c1 (some centres unmarked) [NUCC-0202979]	10 to 50
O=C(N[C@H]1CC(=O)N(Cc2ccccc2C(F)(F)F)C1)c1cc(C(F)(F)F)ccc1O [NUCC-0223624]	< 1
O=C(NC1CC(=O)N(Cc2cccc(C(F)(F)F)c2)C1)c1cc(C(F)(F)F)ccc1O (centres unmarked) [NUCC-0223625]	< 1
CC1(C)C(=O)N(Cc2ccccc2C(F)(F)F)C[C@H]1NC(=O)c1cc(C(F)(F)F)ccc1O [NUCC-0223626]	1 to 10
O=C(NCC1CC(=O)N(Cc2ccccc2C(F)(F)F)C1)c1cc(C(F)(F)F)ccc1O (centres unmarked) [NUCC-0223627]	< 1
O=C(N[C@@H]1CC(=O)N(Cc2ccccc2C(F)(F)F)C1)c1cc(C(F)(F)F)ccc1O [NUCC-0223628]	< 1
CC1(C)C(=O)N(Cc2ccccc2C(F)(F)F)CC1NC(=O)c1cc(C(F)(F)F)ccc1O (centres unmarked) [NUCC-0223629]	10 to 50

Compound	IC50 [µM]
O=C1CC(Nc2ncnc3ccc(C(F)(F)F)cc23)CN1Cc1ccccc1C(F)(F)F (centres unmarked) [NUCC-0223632]	> 50
Nc1ccc(C(F)(F)F)cc1C(=O)NC1CC(=O)N(Cc2ccccc2C(F)(F)F)C1 (centres unmarked) [NUCC-0223633]	> 50
Nc1ccc(F)cc1C(=O)NC1CC(=O)N(Cc2ccccc2C(F)(F)F)C1 (centres unmarked) [NUCC-0223634]	> 50
Nc1ccc(Cl)cc1C(=O)NC1CC(=O)N(Cc2ccccc2C(F)(F)F)C1 (centres unmarked) [NUCC-0223635]	> 50
O=C(NC1CCC(=O)N(Cc2ccccc2C(F)(F)F)C1)c1cc(C(F)(F)F)ccc1O (centres unmarked) [NUCC-0223818]	1 to 10
O=C(NC1CCC(=O)N(Cc2ccccc2C(F)(F)F)C1)c1cc(Cl)ccc1O (centres unmarked) [NUCC-0223819]	1 to 10
O=C(NC1CCC(=O)N(Cc2ccccc2C(F)(F)F)C1)c1ccc(C(F)(F)F)cc1O (centres unmarked) [NUCC-0223820]	> 50
O=C(NC1CCN(Cc2ccccc2C(F)(F)F)C1=O)c1cc(C(F)(F)F)ccc1O (centres unmarked) [NUCC-0223821]	< 1
O=C(NC1CCN(Cc2ccccc2C(F)(F)F)C1=O)c1ccc(C(F)(F)F)cc1O (centres unmarked) [NUCC-0223822]	> 50
O=C(NC1CCN(Cc2ccccc2C(F)(F)F)C1=O)c1cccc(C(F)(F)F)c1O (centres unmarked) [NUCC-0223823]	> 50
O=C(NC1CCN(Cc2ccccc2C(F)(F)F)C1=O)c1cc(Cl)ccc1O (centres unmarked) [NUCC-0223824]	> 50
O=C1C(Nc2ncnc3ccc(C(F)(F)F)cc23)CCN1Cc1ccccc1C(F)(F)F (centres unmarked) [NUCC-0223825]	> 50
O=C1CCC(Nc2ncnc3ccc(C(F)(F)F)cc23)CN1Cc1ccccc1C(F)(F)F (centres unmarked) [NUCC-0223826]	> 50
O=C(NC1CCN(Cc2cccc(C(F)(F)F)c2)C1=O)c1cc(C(F)(F)F)ccc1O (centres unmarked) [NUCC-0226232]	1 to 10
O=C(NCC1CC(=O)N(Cc2cccc(C(F)(F)F)c2)C1)c1cc(C(F)(F)F)ccc1O (centres unmarked) [NUCC-0226233]	< 1
O=C(N[C@H]1CC(=O)N(Cc2cccc(C(F)(F)F)c2)C1)c1cc(C(F)(F)F)ccc1O [NUCC-0226234]	1 to 10
O=C(N[C@@H]1CC(=O)N(Cc2cccc(C(F)(F)F)c2)C1)c1cc(C(F)(F)F)ccc1O [NUCC-0226235]	1 to 10
CC1(C)C(=O)N(Cc2cccc(C(F)(F)F)c2)CC1NC(=O)c1cc(C(F)(F)F)ccc1O (centres unmarked) [NUCC-0226236]	< 1
COC(=O)c1ccccc1CN1CC(NC(=O)c2cc(C(F)(F)F)ccc2O)CCC1=O (centres unmarked) [NUCC-0226237]	1 to 10
O=C(N[C@H]1CCN(Cc2cccc(C(F)(F)F)c2)C1=O)c1cc(C(F)(F)F)ccc1O [NUCC-0226238]	1 to 10
O=C(NCC1CCC(=O)N1Cc1cccc(C(F)(F)F)c1)c1cc(C(F)(F)F)ccc1O (centres unmarked) [NUCC-0226240]	1 to 10
O=C(NC[C@@H]1CCC(=O)N1Cc1cccc(C(F)(F)F)c1)c1cc(C(F)(F)F)ccc1O [NUCC-0226241]	1 to 10
